Patent publication US7422846B2, “Natural ligand for orphan G protein coupled receptor GPR86 and methods of use” (Euroscreen S.A, priority 2001, dated 2008)

Experiments:
Type in all cases: cell-based
CHO-K1 control cells = assay: Erk phosphorylation in CHO-K1 control cells transfected with empty pEFIN5 vector; details: 1 μM; 5 min, 20 min or 1 h
[1] = target: T1, GPR86 (P2Y13) human receptor (Homo sapiens, UniProt Q9BPV8, T179M); assay: Western blot of phosphorylated Erk1 and Erk2 in GPR86-transfected CHO-K1 cells; design: expressed in transfected cells; details: for Erk phosphorylation / time of stimulation giving maximal Erk phosphorylation response: 1 μM; for concentration at which a significant effect on Erk phosphorylation was already observed / concentration giving maximal effect on Erk phosphorylation: 5 min stimulation; for concentration giving maximal effect on Erk phosphorylation: 1 nM to 10 μM tested
T1 sequence (Q9BPV8 22-354 T179M): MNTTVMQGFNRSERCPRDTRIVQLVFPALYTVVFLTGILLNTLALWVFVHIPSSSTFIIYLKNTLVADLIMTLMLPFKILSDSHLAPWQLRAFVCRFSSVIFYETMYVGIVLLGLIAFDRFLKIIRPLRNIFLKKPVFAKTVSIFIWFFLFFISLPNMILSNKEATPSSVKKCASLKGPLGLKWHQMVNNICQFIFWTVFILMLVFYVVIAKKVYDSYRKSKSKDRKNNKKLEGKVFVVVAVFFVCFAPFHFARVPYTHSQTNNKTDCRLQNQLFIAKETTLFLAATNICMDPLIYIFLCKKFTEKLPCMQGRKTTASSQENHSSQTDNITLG
Description: To investigate changes in the activation status of the MAP kinases Erk1 and Erk2 upon stimulation of the human GPR86 receptor, whole CHO-K1 transfected cell extracts were analysed by Western blotting using a specific antibody for the dually phosphorylated kinases (at Thr^202 and Tyr^204), which are the active forms of Erk. Western Blot Analysis of phosphorylated Erk1 and Erk2 proteins.
GPR86-transfected CHO-K1 cells were seeded at 1.5×10^6 cells/dish. After 24 h, the cells were serum-starved for 2 h in KRH buffer. After stimulation with the agonist, the cells were scraped in 1 ml of PBS pH 7.3 (137 mM NaCl, 2.7 mM KCl, 4.3 mM Na2HPO4.7H2O and 1.4 mM KH2PO4). The cells were recovered by centrifugation and lysed in 150 μl of Laemmli buffer (10% (w/v) glycerol, 5% (v/v) mercaptoethanol, 2.3% (w/v) SDS, 62.5 mM Tris-HCl pH 6.8). The protein concentration was determined using the method of Minamide and Bamburg (27). The same amount of protein for each condition was electrophoresed in a 12% SDS-polyacrylamide gel. Proteins were then transferred overnight at 60 V and 4° C. onto a nitrocellulose membrane using 20 mM Tris, 154 mM glycine, 20% (v/v) methanol as a transfer buffer. Immunodetection was achieved using the enhanced chemiluminescence Western blotting detection system (ECL, Amersham Phammacia Biotech) using a biotinylated-secondary mouse antibody ( 1/25,000). The monoclonal antibody specific for the dually phosphorylated forms of Erk1 and Erk2 (at Thr^202 and Tyr^204) was used at 1/1000-dilution.
In CHO-K1 cells, phosphorylated Erk1 and Erk2 had the predicted molecular mass of 44 and 42 kDa, respectively. […] GPR86-transfected CHO-K1 cells were stimulated during different times or with various concentrations of ADP and 2MeSADP or water (CONT). The effect of 100 ng/ml pertussis toxin (PTx) has been tested at 5 and 30 min in the presence of 1 μM ADP or 2MeSADP. Blotting and immunodetection were achieved as described using the enhanced chemiluminescence Western blotting detection system (ECL, Amersham Pharmacia Biotech).

[2] = target: T1, GPR86 (P2Y13) human receptor; assay: cAMP accumulation in CHO-K1 cells expressing GPR86 in the presence of forskolin; design: expressed in transfected cells; host or cells: 1321N1 astrocytoma clone AG32 (stably expressing Gα16 from pERAEQ2), G418-selected; details: forskolin 4 μM
Description: Secondary messenger assays, amenable to high throughput screening analysis, are performed including but not limited to the measurement of intracellular levels of cAMP, intracellular inositol phosphate, intracellular diacylglycerol concentrations, arachinoid acid concentration or MAP kinase or tyrosine kinase activity (as decribed above). For example, the GPR86 activity, as measured in a cyclic AMP assay, is quantified by a radioimmunoassay as previously described (26). Results are compared to the baseline level of GPR86 activity obtained from recombinant cells according to the invention in the presence of ADP but in the absence of added modulator compound. Wells showing at least 2 fold, preferably 5 fold, more preferably 10 fold and most preferably a 100 fold or more increase or decrease in GPR86 activity as compared to the level of activity in the absence of modulator, are selected for further analysis.
The potential effect of nucleotides was tested on the cAMP pathway in CHO-K1 cells expressing the human GPR86 receptor. […] CHO-K1 transfected cells were incubated in the presence of various concentrations of ADP and 4 μM forskolin for 10 min. The data represent the mean±S.D. of triplicate experimental points obtained in one representative experiment of three and 2MeSADP in the presence of forskolin 4 μM. […] CHO-K1 transfected cells were incubated in the presence of various concentrations of ADP an 4 μM forskolin for 10 minutes. The data represent the mean+/−S.D. of triplicate experimental points obtained in one representative experiment of three. CHO-K1 transfected cells were pre-incubated with or without 100 ng/ml pertussis toxin for 18 h and then incubated in the presence of ADP (100 nM and 100 μM) or water (CONT) and 4 μM forskolin for 10 min. The data represent the mean±S.D. of triplicate experimental points obtained in one representative experiment of two. The biphasic effect of ADP on adenylyl cyclase has been reproduced in 1321N1 cells transfected with the human GPR86 receptor.

| Compound | Erk1 or Erk2 phosphorylation (CHO-K1 control cells) | Erk phosphorylation [1] | time of stimulation giving maximal Erk phosphorylation response [1] | concentration at which a significant effect on Erk phosphorylation was already observed [1] | concentration giving maximal effect on Erk phosphorylation [1] | effect on cAMP level at low concentrations [2] | effect on adenylyl cyclase / cAMP at high concentration ([2]; 10 μM) | effect on cAMP level after pertussis toxin pretreatment ([2]; ADP 100 nM and 100 μM, 18 h pretreatment with 100 ng/ml pertussis toxin) | maximal inhibition percentage of cAMP ([2]; at 30 nM) | IC50 ([2]; 10 min, mean±S.D. of three independent experiments, read-out: IC50, inhibition of cAMP level) |
| --- | --- | --- | --- | --- | --- | --- | --- | --- | --- | --- |
| CSc1nc(N)c2ncn([C@@H]3O[C@H](COP(=O)(O)OP(=O)(O)O)[C@@H](O)[C@H]3O)c2n1 [2MeSADP, 2-methylthio-ADP] | not observed | strong phosphorylation of Erk2 | 5 min | 10 nM | 1 µM | Significant inhibitions of the cAMP level | – | – | – | – |
| Nc1ncnc2c1ncn2[C@@H]1O[C@H](COP(=O)(O)OP(=O)(O)O)[C@@H](O)[C@H]1O [ADP] | not observed | strong phosphorylation of Erk2 | 5 min | 10 nM | 1 µM | Significant inhibitions of the cAMP level | small increase | significant increases of the cAMP level | 52±7% | 1.5 ± 0.6 nM |
